Assay results published in BindingDB's records for doi:10.1111/cbdd.12724 (Hamdard University (Jamia Hamdard), 2016).

Target: Glycogen synthase kinase-3 beta (Homo sapiens, UniProt P49841)
Experiment: Kinase-Glo Assay
Conditions: 30 °C
Protocol: The final DMSO concentration in the reaction mixture was <1%. After incubation at 30 °C for 30 min, the enzymatic reaction was quenched with 40 μL of Kinase-Glo reagent. Luminescence was recorded after 10 min using Infinite F200® PRO multimode reader (Tecan Group Ltd., Männedorf, Switzerland). The activity is proportional to the difference of the total and consumed ATP.

Chain of Glycogen synthase kinase-3 beta (P49841 whole entry): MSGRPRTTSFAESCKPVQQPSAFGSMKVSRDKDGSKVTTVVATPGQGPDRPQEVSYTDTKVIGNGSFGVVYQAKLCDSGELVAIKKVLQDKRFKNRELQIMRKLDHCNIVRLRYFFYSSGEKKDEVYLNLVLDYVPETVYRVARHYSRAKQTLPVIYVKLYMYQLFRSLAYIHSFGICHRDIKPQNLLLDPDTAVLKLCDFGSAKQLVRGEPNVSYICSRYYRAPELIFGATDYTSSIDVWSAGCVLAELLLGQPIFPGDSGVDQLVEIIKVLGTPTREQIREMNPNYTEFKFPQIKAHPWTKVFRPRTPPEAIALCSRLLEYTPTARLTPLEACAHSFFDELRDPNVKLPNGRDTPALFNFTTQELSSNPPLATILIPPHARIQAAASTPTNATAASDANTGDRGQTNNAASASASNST

With O=c1oc2cccnc2n1Cc1cn(-c2ccc(F)cc2)nn1 [3-((1-(4-fluorophenyl)-1H-1,2,3-triazol-4-yl)methyl)oxazolo[4,5-b]pyridin-2(3H)-one (4e)] the IC50 was 2.49 µM.

For O=c1oc2cccnc2n1Cc1cn(-c2ccccc2Br)nn1 [3-((1-(2-bromophenyl)-1H-1,2,3-triazol-4-yl)methyl)oxazolo[4,5-b]pyridin-2(3H)-one (4f)], the IC50 was 0.31 µM.

O=c1oc2cccnc2n1Cc1cn(-c2ccc(Cl)cc2)nn1 [3-((1-(4-chlorophenyl)-1H-1,2,3-triazol-4-yl)methyl)oxazolo[4,5-b]pyridin-2(3H)-one (4c)] was tested, and the IC50 was 5.73 µM.

With CCOc1ccc(-n2cc(Cn3c(=O)oc4cccnc43)nn2)cc1 [3-((1-(4-ethoxyphenyl)-1H-1,2,3-triazol-4-yl)methyl)oxazolo[4,5-b]pyridin-2(3H)-one (4u)] the IC50 was 37.3 µM.

Compound Cc1ccccc1-n1cc(Cn2c(=O)oc3cccnc32)nn1 [3-((1-o-tolyl-1H-1,2,3-triazol-4-yl)methyl)oxazolo[4,5-b]pyridin-2(3H)-one (4n)] has an IC50 of 0.65 µM.

In the case of O=c1oc2cccnc2n1Cc1cn(-c2ccc([N+](=O)[O-])cc2)nn1 [3-((1-(4-nitrophenyl)-1H-1,2,3-triazol-4-yl)methyl)oxazolo[4,5-b]pyridin-2(3H)-one (4p)], the IC50 is reported as 17.1 µM.

For O=c1oc2cccnc2n1Cc1cn(-c2ccccc2)nn1 [3-((1-phenyl-1H-1,2,3-triazol-4-yl)methyl)oxazolo[4,5-b]pyridin-2(3H)-one (4a)], the IC50 was 10.1 µM.

COc1ccc(-n2cc(Cn3c(=O)oc4cccnc43)nn2)cc1 [3-((1-(4-methoxyphenyl)-1H-1,2,3-triazol-4-yl)methyl)oxazolo[4,5-b]pyridin-2(3H)-one (4l)] showed an IC50 of 8.45 µM.

With O=c1oc2cccnc2n1Cc1cn(-c2cccc([N+](=O)[O-])c2)nn1 [3-((1-(3-nitrophenyl)-1H-1,2,3-triazol-4-yl)methyl)oxazolo[4,5-b]pyridin-2(3H)-one (4o)] the IC50 was 15.6 µM.

With CCc1ccc(-n2cc(Cn3c(=O)oc4cccnc43)nn2)cc1 [3-((1-(4-ethylphenyl)-1H-1,2,3-triazol-4-yl)methyl)oxazolo[4,5-b]pyridin-2(3H)-one (4h)] the IC50 was 12.7 µM.

With O=c1oc2cccnc2n1Cc1cn(-c2cccnc2Cl)nn1 [3-((1-(2-chloropyridin-3-yl)-1H-1,2,3-triazol-4-yl)methyl)oxazolo[4,5-b]pyridin-2(3H)-one (4t)] the IC50 was 11 µM.

O=c1oc2cccnc2n1Cc1cn(-c2ccccc2Cl)nn1 [3-((1-(2-chlorophenyl)-1H-1,2,3-triazol-4-yl)methyl)oxazolo[4,5-b]pyridin-2(3H)-one (4g)] showed an IC50 of 0.19 µM.

Compound O=c1oc2cccnc2n1Cc1cn(-c2ccccc2F)nn1 [3-((1-(2-fluorophenyl)-1H-1,2,3-triazol-4-yl)methyl)oxazolo[4,5-b]pyridin-2(3H)-one (4i)] has an IC50 of 0.37 µM.

O=c1oc2cccnc2n1Cc1cn(-c2cccnc2)nn1 [3-((1-(pyridin-3-yl)-1H-1,2,3-triazol-4-yl)methyl)oxazolo[4,5-b]pyridin-2(3H)-one (4d)] gave an IC50 of 0.23 µM.

Work on COc1ccccc1-n1cc(Cn2c(=O)oc3cccnc32)nn1 [3-((1-(2-methoxyphenyl)-1H-1,2,3-triazol-4-yl)methyl)oxazolo[4,5-b]pyridin-2(3H)-one  (4q)] yielded an IC50 of 0.74 µM.

O=c1oc2cccnc2n1Cc1cn(-c2cccc(Cl)c2)nn1 [3-((1-(3-chlorophenyl)-1H-1,2,3-triazol-4-yl)methyl)oxazolo[4,5-b]pyridin-2(3H)-one (4k)] gave an IC50 of 28.4 µM.

O=c1oc2cccnc2n1Cc1cn(-c2ccc(Cl)cc2Cl)nn1 [3-((1-(2,4-dichlorophenyl)-1H-1,2,3-triazol-4-yl)methyl)oxazolo[4,5-b]pyridin-2(3H)-one (4r)] gave an IC50 of 10.8 µM.

For O=c1oc2cccnc2n1Cc1cn(-c2ccc(Br)cc2)nn1 [3-((1-(4-bromophenyl)-1H-1,2,3-triazol-4-yl)methyl)oxazolo[4,5-b]pyridin-2(3H)-one (4b)], the IC50 was 8.64 µM.

In the case of Cc1ccc(-n2cc(Cn3c(=O)oc4cccnc43)nn2)cc1C [3-((1-(3,4-dimethylphenyl)-1H-1,2,3-triazol-4-yl)methyl)oxazolo[4,5-b]pyridin-3H)one (4j)], the IC50 is reported as 40.1 µM.

Compound O=c1oc2cccnc2n1Cc1cn(-c2ccc(Cl)c(Cl)c2)nn1 [3-((1-(3,4-dichlorophenyl)-1H-1,2,3-triazol-4-yl)methyl)oxazolo[4,5-b]pyridin-2(3H)-one (4s)] has an IC50 of 12.6 µM.

Compound CC(C)(C)c1ccc(-n2cc(Cn3c(=O)oc4cccnc43)nn2)cc1 [3-((1-(4-tert-butylphenyl)-1H-1,2,3-triazol-4-yl)methyl)oxazolo[4,5-b]pyridin-2(3H)-one (4m)] has an IC50 of 23.5 µM.
